Measured values published in patent publication US20150353515A1, “Novel analogs of resveratrol” (priority 2014, published 2015).

Columns and labels:
[1] = system: RAW 264.7 macrophage cell line (LPS-stimulated NO production); test: Nitric oxide inhibition: nitrite quantification with Griess reagent in LPS-stimulated macrophage cells; type: cell-based, mouse; conditions: nitrite in supernatant of LPS (100 ng/ml)-stimulated RAW 264.7 cells, 24 h, lowest tested concentration 25 μM
Text: The mouse BALB/c macrophage cell line, RAW 264.7 BCRC No. 60001 (identical to ATCC number TIB-71), was obtained from Bioresource Collection and Research Center, Taiwan. The cells were maintained according to the protocols being cultured in 50 cm^2 plastic flasks (Nunc, Roskilde, Denmark) with the medium renewed every 3 days. LPS (from Escherichia coli, serotype 0127:B8), trypan blue and all the other chemicals, unless otherwise specified, were purchased from Aldrich-Sigma Chemical Company (St. Louis, Mo., USA).
The cells were cultured with or without a pretreatment by the test compounds and resveratrol of 25, 50, 100, and up to 200 μM as already described. Each value is the mean±SEM of three determinations. *p<0.05, each value was compared with or without the LPS-stimulated group.
The production of NO was determined by measuring the accumulated level of nitrite in the culture supernatant with the Griess reagent in LPS-stimulated macrophage cells. A quantity of 100 μl of a sample aliquot were mixed with 100 μl of the Griess reagent (0.1% N-(1-naphthyl)ethylenediamine, 1% sulfanilamide, and 2.5% phosphoric acid) in a 96-well plate and then incubated at 25° C. for 10 min. The absorbance at 550 nm was measured with an ELISA reader (MR 700, Dynatech Laboratories, Alexandria, Va., USA). NaNO2 was used as the standard to calculate the nitrite concentration.

[2] = system: human umbilical vein endothelial cells (HUVECs) co-cultured with normal human dermal fibroblasts (NHDF); test: Anti-angiogenesis: capillary-tube formation assay (Kurabo angiogenesis kit); type: cell-based; conditions: HUVEC tube formation inhibition, HUVEC/NHDF co-culture, 11 d, 1-100 μM
Procedure: Capillary-tube formation was assayed using the angiogenesis kits (Kurabo, Okayama, Japan) according to the manufacturer's instruction. Briefly, human umbilical vein endothelial cells (HUVECs) co-cultured with normal human dermal fibroblasts (NHDF), which a cultural kit originally developed by Kurabo Co. Ltd., Okayama, Japan, onto 24-well plate were incubated either with or without test compounds and resveratrol respectively at appropriate concentrations (1-100 μM) for 11 d (media replacement was performed at d 1, 4, 7, and 9). The cells were thereafter fixed with 70% cold ethanol, incubated with mouse antihuman CD31 antibody followed by incubation with an alkaline phosphatase conjugate goat antimouse antibody, and then stained with 5-bromo-4-chloro-3-indolyl phosphate/nitro blue tetrazolium to visualize tube network at d-11, respectively. In each assay, randomly selected five fields of view in each well were captured by digital camera under the light microscopy on ×40 magnification. The analysis of tube formation was then carried out by measuring total area and length of tubes per well using analytical software (by Kurabo).

[3] = system: λ-carrageenan-induced paw edema in Wistar rats; test: In-vivo carrageenan-induced paw edema study; conditions: rat, 20 mg/kg i.p. single dose in CMC, 5 h after carrageenan
Procedure: In this study, X-carrageenan was used to stimulate the inflammation on the rear footpad of the rats. Male albino Wistar rats (183-218 g) 4 to 6 weeks old were housed and cared under the guidelines of the Institutional Animal Care and Use Committee at the National Defense Medical Center, Taiwan. The rats were assigned to groups. For each group, 3 rats were used and marked on the tails. one of them being the control. In order to induce inflammation, 50 μl of a 1% λ-carrageenan solution in normal saline was injected into the right hind paw subplantar tissue. The development of paw edema was measured plethysmographically (Basile 7140 plethysmometer, Ugo, Varese, Italy) and recorded prior to this administration. […] Before carrageenan treatment, the volume of each […] footpad was measured (V0). […] After the λ-carrageenan challenge, each paw volume (ml) was measured hourly up to 5 h. The percentage of paw edema and the inhibition of inflammation were calculated. Edema rate (E %) was calculated as follows: E%=(Vt-V0)/V0×100; V0: volume of hind paw before 1% λ-carrageenan administration; Vt: volume of hind paw after 1% carrageenan administration at t h. Percentage of inhibition (1%) was determined as follows: 1%(Ec-Et)/Ec×100; Ec: edema rate of control group; Et: edema rate of the respective test compound at t h. […]

Row | Molecule | IC50 [1] [µM] | IC50 [2] [µM] | IC50 ([1]; Mus musculus, RAW264.7) [µM] | IC50 ([2]; Homo sapiens, 264 h) [µM] | Percentage of inhibition of paw edema [3] [%] | paw edema (increase of paw volume) ([3]; p<0.05) [mL]
1 | CC[n+]1c(/C=C/c2ccc(OC)cc2O)sc2ccccc21 [Compound 3, N-Ethyl-2-[(E)-2-(2′-hydroxy-4′-methoxyphenyl)vinyl]benzothiazolium bromide] | < 25 | 31.2 ± 2 | – | – | – | –
2 | CC[n+]1c(/C=C/c2cc(OC)c(O)c(OC)c2)sc2ccccc21 [Compound 5, N-Ethyl-2-[(E)-2-(3′,5′-dimethoxy-4′-hydroxyphenyl)vinyl]benzothiazolium bromide] | < 25 | 21.2 ± 1.6 | – | – | – | –
3 | CC[n+]1c(/C=C/c2ccc(O)c(OC)c2)sc2ccccc21 [Compound 6, N-Ethyl-2-[(E)-2-(4′-hydroxy-3′-methoxyphenyl)vinyl]benzothiazolium bromide] | < 25 | 19.9 ± 2.3 | – | – | – | –
4 | Oc1ccc(/C=C/c2cc(O)cc(O)c2)cc1 [Resveratrol (1), 3,5,4′-trihydroxy-trans-stilbene, reference compound] | – | – | 40 | 47.7 ± 1.1 | – | –
5 | N-Ethyl-2-[(E)-2-(3′,4′,5′-trimethoxyphenyl)vinyl]benzothiazolium bromide [Compound 4] | < 25 | 18.8 ± 1.3 | – | – | 69.5 | 0.21 ± 0.06
